“And” between values parts separate entries of the source, which are not always exact repeats. Equal values may be shown once.
Conditions: Fluid (supercritical or subcritical phases), Coaxial cylinder method

FCC(F)(F)F [1,1,1,2-tetrafluoroethane]
Conditions | thermal conductivity
299.29 K, 170 kPa | 0.01287 W/m/K
299.63 K, 170 kPa | 0.01279 W/m/K
318.97 K, 740 kPa | 0.01489 W/m/K and 0.01486 W/m/K
319.14 K, 160 kPa | 0.0146 W/m/K
345.58 K, 180 kPa | 0.01711 W/m/K
346.36 K, 180 kPa | 0.01739 W/m/K
348.54 K, 180 kPa | 0.01732 W/m/K
351.84 K, 640 kPa | 0.01763 W/m/K
363.88 K, 180 kPa | 0.01891 W/m/K
365 K, 180 kPa | 0.01891 W/m/K
365.41 K, 180 kPa | 0.01893 W/m/K
365.69 K, 180 kPa | 0.01893 W/m/K
366.52 K, 180 kPa | 0.01892 W/m/K
366.8 K, 180 kPa | 0.01893 W/m/K
372.42 K, 680 kPa | 0.01975 W/m/K
372.43 K, 170 kPa | 0.01968 W/m/K
372.43 K, 680 kPa | 0.01965 W/m/K
374.18 K, 4090 kPa | 0.0729 W/m/K
374.19 K, 4100 kPa | 0.0708 W/m/K
374.21 K, 4120 kPa | 0.068 W/m/K
374.22 K, 4142 kPa | 0.0659 W/m/K
374.22 K, 4149 kPa | 0.0654 W/m/K
374.23 K, 4187 kPa | 0.0642 W/m/K
374.28 K, 4085 kPa | 0.141 W/m/K
374.31 K, 4090 kPa | 0.1233 W/m/K
374.32 K, 4093 kPa | 0.1139 W/m/K
374.34 K, 4097 kPa | 0.1057 W/m/K
374.36 K, 4100 kPa | 0.0993 W/m/K
374.37 K, 4073 kPa | 0.1974 W/m/K
374.37 K, 4074 kPa | 0.1974 W/m/K
374.37 K, 4245 kPa | 0.0643 W/m/K
374.37 K, 4270 kPa | 0.0643 W/m/K
374.37 K, 4358 kPa | 0.0641 W/m/K
374.38 K, 4078 kPa | 0.1828 W/m/K
374.38 K, 4083 kPa | 0.1742 W/m/K
374.38 K, 4105 kPa | 0.0914 W/m/K
374.39 K, 4070 kPa | 0.1644 W/m/K
374.4 K, 4110 kPa | 0.0851 W/m/K
374.47 K, 4071 kPa | 0.1096 W/m/K
374.5 K, 4533 kPa | 0.0637 W/m/K
374.51 K, 4621 kPa | 0.0635 W/m/K
374.52 K, 4710 kPa | 0.0617 W/m/K
374.52 K, 4759 kPa | 0.061 W/m/K
374.54 K, 4072 kPa | 0.0831 W/m/K
374.57 K, 4073 kPa | 0.0764 W/m/K
374.61 K, 4068 kPa | 0.0674 W/m/K
374.66 K, 4063 kPa | 0.0593 W/m/K
374.72 K, 4049 kPa | 0.0529 W/m/K
374.76 K, 3717 kPa | 0.0352 W/m/K
374.89 K, 4035 kPa | 0.0494 W/m/K
374.92 K, 3675 kPa | 0.0342 W/m/K
374.96 K, 4117 kPa | 0.1232 W/m/K
374.96 K, 4119 kPa | 0.1244 W/m/K
374.96 K, 4126 kPa | 0.1244 W/m/K
374.97 K, 4112 kPa | 0.1176 W/m/K
374.97 K, 4132 kPa | 0.1198 W/m/K
374.99 K, 4107 kPa | 0.1106 W/m/K
374.99 K, 10033 kPa | 0.064 W/m/K
375 K, 4149 kPa | 0.101 W/m/K
375.01 K, 8053 kPa | 0.0615 W/m/K
375.03 K, 4099 kPa | 0.091 W/m/K
375.03 K, 4155 kPa | 0.091 W/m/K
375.03 K, 6045 kPa | 0.0576 W/m/K
375.04 K, 888 kPa | 0.0235 W/m/K
375.04 K, 4160 kPa | 0.0861 W/m/K
375.06 K, 4168 kPa | 0.0796 W/m/K
375.07 K, 4097 kPa | 0.0773 W/m/K
375.1 K, 3544 kPa | 0.0321 W/m/K
375.1 K, 3981 kPa | 0.0428 W/m/K
375.1 K, 4185 kPa | 0.0704 W/m/K
375.11 K, 4099 kPa | 0.0671 W/m/K
375.13 K, 4199 kPa | 0.0643 W/m/K
375.14 K, 3928 kPa | 0.0409 W/m/K
375.14 K, 4132 kPa | 0.1072 W/m/K
375.14 K, 4134 kPa | 0.108 W/m/K
375.14 K, 4136 kPa | 0.108 W/m/K
375.14 K, 4138 kPa | 0.108 W/m/K
375.14 K, 4140 kPa | 0.108 W/m/K
375.14 K, 4142 kPa | 0.1072 W/m/K
375.14 K, 4144 kPa | 0.1063 W/m/K
375.14 K, 4216 kPa | 0.0612 W/m/K
375.15 K, 4130 kPa | 0.1055 W/m/K
375.15 K, 4146 kPa | 0.1047 W/m/K
375.15 K, 4148 kPa | 0.1024 W/m/K
375.16 K, 4150 kPa | 0.1009 W/m/K
375.16 K, 4153 kPa | 0.0988 W/m/K
375.16 K, 4244 kPa | 0.0586 W/m/K
375.17 K, 4157 kPa | 0.0941 W/m/K
375.17 K, 4289 kPa | 0.0565 W/m/K
375.18 K, 4030 kPa | 0.0479 W/m/K
375.18 K, 4160 kPa | 0.0916 W/m/K
